Data from the NIST ThermoML archive (doi:10.1021/acs.jced.8b00292).
Numbers after ± are expanded uncertainties.

Key:
[1] = Crystal; DSC
[2] = Molar enthalpy of transition or fusion; settings: Crystal; DSC

Triple point temperature [1]: 496.42 ± 1.2 K | Molar enthalpy of transition or fusion [2]: 4.66 ± 0.215 kcal/mol
Structure (SMILES): Nc1nc(Cl)cc(Cl)n1 [2-amino-4,6-dichloropyrimidine]
